Drawing on patent US12275731B2, “Azaindole inhibitors of wild-type and mutant forms of LRRK2” (DANA-FARBER CANCER INSTITUTE, INC., priority 2018, dated 2025), this text covers remaining binding for three compounds.

Assay in all cases: KinomeScan profiling
Type in all cases: binding

Test [1] addresses T1, RSK3(Kin.Dom.1-N-terminal) (Homo sapiens, UniProt Q15349).
T1 construct: RSK3(Kin.Dom.1-N-terminal)
The conditions noted are these: read-out: % control. The procedure, abridged:
(§1)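 First, compounds in DMSO are added at 1 μM to each of 468 kinase assays. Next, RLU signals are normalised between positive control (0%) and DMSO (100%). Finally, kinases under 35% are flagged active.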

The target of a further test is YANK3 (Homo sapiens, UniProt Q86UX6). The conditions noted are these: YANK3, 1 μM; read-out: % control. In short, it runs like this: as §1
A further test concerns the target T2, MKK7 (Homo sapiens, UniProt O14733).
T2 sequence (O14733 1-419): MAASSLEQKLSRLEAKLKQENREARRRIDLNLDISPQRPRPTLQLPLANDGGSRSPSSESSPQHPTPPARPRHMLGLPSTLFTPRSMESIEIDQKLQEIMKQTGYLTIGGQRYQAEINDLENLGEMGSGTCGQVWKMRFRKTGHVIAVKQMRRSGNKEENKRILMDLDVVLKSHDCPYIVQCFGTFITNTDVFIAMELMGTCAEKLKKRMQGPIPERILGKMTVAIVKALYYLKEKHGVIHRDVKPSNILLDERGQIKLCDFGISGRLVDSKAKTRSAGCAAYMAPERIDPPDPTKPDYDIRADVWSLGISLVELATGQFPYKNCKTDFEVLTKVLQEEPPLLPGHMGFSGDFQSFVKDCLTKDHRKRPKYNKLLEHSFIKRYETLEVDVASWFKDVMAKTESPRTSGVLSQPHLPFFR
The conditions noted are these: MKK7, 1 μM; read-out: % control. In short, it runs like this:
as §1

The target in another test is MET (Homo sapiens, UniProt P08581). The settings on record: read-out: % control. The procedure, abridged: as §1
Chain of MET (P08581 25-1390): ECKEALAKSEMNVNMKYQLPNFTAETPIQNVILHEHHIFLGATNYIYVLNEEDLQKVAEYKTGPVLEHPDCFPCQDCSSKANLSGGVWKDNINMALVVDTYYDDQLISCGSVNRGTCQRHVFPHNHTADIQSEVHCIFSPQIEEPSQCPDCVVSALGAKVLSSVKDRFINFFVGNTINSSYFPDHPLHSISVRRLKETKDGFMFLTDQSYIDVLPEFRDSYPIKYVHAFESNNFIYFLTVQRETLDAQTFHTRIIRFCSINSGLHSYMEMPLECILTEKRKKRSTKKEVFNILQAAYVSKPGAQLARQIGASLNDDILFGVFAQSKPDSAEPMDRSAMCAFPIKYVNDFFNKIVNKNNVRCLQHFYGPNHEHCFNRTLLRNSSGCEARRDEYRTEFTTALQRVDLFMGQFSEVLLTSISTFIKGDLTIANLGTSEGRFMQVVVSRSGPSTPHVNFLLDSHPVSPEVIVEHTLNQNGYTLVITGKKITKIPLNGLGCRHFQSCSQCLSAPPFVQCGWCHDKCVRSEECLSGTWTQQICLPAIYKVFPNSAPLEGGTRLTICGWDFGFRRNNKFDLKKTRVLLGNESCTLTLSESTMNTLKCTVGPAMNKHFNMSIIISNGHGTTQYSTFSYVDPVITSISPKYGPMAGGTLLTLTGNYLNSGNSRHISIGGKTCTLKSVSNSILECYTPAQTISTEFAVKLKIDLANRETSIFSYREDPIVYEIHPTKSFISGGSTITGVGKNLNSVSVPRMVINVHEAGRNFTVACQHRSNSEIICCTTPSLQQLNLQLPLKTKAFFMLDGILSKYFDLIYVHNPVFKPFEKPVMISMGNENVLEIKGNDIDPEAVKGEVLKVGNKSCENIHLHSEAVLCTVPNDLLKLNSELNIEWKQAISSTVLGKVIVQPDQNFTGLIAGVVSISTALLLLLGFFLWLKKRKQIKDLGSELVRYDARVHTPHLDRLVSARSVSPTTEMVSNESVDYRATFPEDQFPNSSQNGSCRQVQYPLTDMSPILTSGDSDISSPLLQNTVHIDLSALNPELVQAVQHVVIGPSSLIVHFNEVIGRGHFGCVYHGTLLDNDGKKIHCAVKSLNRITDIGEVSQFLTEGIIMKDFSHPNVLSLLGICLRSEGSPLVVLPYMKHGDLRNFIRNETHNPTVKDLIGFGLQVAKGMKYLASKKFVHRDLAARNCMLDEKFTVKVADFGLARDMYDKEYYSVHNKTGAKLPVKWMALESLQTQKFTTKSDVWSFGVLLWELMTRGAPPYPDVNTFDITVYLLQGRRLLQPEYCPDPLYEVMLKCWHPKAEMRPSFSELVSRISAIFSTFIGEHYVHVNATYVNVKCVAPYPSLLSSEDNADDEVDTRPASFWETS
The target in another test is T3, AMPK-alpha1 (Homo sapiens, UniProt Q13131).
T3 construct: purchased KinomeScan®
T3 sequence (Q13131 whole entry): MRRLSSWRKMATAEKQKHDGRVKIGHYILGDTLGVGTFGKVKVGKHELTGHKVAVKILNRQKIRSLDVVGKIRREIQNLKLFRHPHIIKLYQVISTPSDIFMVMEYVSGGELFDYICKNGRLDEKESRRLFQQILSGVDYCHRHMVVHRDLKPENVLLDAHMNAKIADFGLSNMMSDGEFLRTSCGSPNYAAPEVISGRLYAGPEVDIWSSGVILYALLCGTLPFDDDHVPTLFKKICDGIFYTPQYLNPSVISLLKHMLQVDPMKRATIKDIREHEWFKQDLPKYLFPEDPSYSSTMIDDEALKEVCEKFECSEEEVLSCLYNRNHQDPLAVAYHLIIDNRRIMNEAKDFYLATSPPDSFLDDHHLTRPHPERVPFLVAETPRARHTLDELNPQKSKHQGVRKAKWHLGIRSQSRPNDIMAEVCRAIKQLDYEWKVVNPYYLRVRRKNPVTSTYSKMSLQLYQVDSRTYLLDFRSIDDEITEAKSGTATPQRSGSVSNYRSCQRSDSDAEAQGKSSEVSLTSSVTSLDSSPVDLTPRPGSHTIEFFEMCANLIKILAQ
The settings on record: AMPK-alpha1, 1 μM; read-out: % control. In short, it runs like this: as §1

Another test addresses CDC2L5 (Homo sapiens, UniProt Q14004). The settings on record: CDC2L5, 1 μM; read-out: % control. The procedure, abridged:
as §1

The target of the next test is FGFR3 (Homo sapiens, UniProt P22607). The settings on record: FGFR3, 1 μM; read-out: % control. The procedure, abridged:
as §1

The target in test [2] is T4, ABL1(F317L)-nonphosphorylated (Homo sapiens, UniProt P00519, F317L).
T4 construct: purchased KinomeScan®
The conditions noted are these: read-out: % control. In short, it runs like this:
as §1

The target in test [3] is T5, ABL1(T315I)-phosphorylated (Homo sapiens, UniProt P00519, T315I).
T5 construct: purchased KinomeScan®
The settings on record: read-out: % control. The procedure, abridged: as §1

In test [4] the target is T6, RSK2(Kin.Dom.2-C-terminal) (Homo sapiens, UniProt P51812).
T6 construct: RSK2(Kin.Dom.2-C-terminal)
T6 sequence (P51812 422-679 limits assumed): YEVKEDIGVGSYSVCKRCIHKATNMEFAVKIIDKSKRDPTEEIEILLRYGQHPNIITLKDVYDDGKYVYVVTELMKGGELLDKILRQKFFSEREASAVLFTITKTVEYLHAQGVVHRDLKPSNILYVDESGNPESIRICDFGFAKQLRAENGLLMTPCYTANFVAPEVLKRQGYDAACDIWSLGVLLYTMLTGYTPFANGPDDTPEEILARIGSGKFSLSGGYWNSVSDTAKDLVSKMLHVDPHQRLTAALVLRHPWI
The settings on record: read-out: % control. In short, it runs like this: as §1

For a further test, the target named is T7, PIK3C2G (Homo sapiens, UniProt O75747).
T7 construct: purchased KinomeScan® (panel service)
T7 sequence (O75747 1-1486): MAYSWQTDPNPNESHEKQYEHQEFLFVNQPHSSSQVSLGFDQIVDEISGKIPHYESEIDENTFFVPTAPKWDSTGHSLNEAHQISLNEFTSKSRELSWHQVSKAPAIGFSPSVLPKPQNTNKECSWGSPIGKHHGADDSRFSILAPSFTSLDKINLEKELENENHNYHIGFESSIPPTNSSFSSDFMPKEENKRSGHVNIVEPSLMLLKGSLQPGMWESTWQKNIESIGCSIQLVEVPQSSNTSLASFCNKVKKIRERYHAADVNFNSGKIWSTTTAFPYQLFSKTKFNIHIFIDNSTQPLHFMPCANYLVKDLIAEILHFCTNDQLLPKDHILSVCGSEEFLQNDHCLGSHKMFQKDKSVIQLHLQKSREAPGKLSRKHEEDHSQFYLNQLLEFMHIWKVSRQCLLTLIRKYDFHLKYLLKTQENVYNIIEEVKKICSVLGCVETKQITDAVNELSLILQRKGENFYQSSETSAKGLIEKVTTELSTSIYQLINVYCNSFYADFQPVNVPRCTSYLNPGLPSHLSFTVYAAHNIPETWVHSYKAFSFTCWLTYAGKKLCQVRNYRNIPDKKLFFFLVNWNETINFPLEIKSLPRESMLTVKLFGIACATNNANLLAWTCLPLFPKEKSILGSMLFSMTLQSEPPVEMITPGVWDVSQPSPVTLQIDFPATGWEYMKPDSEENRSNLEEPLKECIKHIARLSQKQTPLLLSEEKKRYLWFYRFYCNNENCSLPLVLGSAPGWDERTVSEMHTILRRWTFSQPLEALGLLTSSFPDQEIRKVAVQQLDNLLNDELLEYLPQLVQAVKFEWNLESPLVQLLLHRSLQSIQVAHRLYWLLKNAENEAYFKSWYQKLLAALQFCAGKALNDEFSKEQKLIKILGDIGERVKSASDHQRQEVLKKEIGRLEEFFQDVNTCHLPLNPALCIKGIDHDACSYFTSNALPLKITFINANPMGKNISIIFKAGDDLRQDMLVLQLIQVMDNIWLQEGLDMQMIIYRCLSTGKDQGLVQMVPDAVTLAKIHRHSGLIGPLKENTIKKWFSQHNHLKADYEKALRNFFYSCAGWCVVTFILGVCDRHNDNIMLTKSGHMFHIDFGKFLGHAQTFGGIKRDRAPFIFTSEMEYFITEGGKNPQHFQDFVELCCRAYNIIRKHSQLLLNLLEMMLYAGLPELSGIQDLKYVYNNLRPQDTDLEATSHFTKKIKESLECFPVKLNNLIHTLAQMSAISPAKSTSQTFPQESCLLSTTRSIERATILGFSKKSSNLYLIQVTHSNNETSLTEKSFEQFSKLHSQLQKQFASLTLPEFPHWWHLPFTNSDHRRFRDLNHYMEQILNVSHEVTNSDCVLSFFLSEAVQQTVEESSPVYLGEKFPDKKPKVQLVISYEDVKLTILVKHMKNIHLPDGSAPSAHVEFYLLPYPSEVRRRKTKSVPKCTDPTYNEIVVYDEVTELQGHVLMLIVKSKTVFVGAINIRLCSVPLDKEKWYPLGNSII
The settings on record: read-out: % control. In short, it runs like this:
as §1

The target of a further test is RET(M918T) (Homo sapiens, UniProt P07949, M918T). The settings on record: read-out: % control. In short, it runs like this:
as §1

T1 sequence (Q15349 59-318 limits assumed): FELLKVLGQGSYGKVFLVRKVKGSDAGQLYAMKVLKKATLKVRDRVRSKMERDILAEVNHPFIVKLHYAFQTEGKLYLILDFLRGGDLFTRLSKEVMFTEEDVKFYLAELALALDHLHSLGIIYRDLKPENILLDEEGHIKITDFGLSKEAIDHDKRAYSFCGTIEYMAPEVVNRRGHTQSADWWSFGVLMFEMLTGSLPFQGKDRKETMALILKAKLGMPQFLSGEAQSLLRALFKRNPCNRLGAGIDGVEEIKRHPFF
Chain of CDC2L5 (Q14004 whole entry): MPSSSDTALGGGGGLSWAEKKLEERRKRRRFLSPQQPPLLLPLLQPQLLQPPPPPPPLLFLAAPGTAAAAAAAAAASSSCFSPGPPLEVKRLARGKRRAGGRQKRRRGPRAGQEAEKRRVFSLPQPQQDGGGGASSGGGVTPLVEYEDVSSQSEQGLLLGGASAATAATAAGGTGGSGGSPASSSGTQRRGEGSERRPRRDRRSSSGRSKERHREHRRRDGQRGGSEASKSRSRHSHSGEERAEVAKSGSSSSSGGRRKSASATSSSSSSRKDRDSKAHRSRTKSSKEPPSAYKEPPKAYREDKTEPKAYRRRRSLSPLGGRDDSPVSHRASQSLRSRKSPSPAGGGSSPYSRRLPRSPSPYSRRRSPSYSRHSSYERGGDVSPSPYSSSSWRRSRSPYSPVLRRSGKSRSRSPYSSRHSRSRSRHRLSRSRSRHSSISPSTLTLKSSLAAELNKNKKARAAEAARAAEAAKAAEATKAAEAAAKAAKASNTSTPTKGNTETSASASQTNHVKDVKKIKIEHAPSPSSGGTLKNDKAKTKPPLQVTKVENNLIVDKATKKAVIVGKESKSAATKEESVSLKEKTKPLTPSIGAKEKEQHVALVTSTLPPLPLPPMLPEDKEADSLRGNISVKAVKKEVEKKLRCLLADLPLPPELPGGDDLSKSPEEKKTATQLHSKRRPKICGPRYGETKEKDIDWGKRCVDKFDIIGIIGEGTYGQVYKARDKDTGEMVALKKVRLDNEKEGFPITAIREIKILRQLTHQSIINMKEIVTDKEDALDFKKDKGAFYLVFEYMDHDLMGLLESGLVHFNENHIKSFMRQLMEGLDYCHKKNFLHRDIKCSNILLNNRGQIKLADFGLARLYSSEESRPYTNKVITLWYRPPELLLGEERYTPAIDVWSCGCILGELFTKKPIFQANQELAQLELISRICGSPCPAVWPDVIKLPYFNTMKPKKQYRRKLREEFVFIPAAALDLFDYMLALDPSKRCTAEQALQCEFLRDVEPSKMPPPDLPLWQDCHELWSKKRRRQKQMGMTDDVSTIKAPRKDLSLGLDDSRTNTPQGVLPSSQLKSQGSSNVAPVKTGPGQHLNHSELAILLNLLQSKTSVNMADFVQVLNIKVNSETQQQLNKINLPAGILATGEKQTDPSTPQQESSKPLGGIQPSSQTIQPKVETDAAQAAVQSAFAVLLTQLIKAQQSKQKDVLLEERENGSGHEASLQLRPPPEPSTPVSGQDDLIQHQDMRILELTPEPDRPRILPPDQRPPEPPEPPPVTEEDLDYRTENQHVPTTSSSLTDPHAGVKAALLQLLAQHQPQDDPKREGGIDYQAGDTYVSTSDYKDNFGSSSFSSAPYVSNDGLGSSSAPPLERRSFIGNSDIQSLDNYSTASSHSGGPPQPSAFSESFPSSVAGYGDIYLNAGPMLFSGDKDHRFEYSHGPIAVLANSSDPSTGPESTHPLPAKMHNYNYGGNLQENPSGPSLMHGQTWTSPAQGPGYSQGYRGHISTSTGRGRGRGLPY
Chain of RET(M918T) (P07949 29-1114 M918T): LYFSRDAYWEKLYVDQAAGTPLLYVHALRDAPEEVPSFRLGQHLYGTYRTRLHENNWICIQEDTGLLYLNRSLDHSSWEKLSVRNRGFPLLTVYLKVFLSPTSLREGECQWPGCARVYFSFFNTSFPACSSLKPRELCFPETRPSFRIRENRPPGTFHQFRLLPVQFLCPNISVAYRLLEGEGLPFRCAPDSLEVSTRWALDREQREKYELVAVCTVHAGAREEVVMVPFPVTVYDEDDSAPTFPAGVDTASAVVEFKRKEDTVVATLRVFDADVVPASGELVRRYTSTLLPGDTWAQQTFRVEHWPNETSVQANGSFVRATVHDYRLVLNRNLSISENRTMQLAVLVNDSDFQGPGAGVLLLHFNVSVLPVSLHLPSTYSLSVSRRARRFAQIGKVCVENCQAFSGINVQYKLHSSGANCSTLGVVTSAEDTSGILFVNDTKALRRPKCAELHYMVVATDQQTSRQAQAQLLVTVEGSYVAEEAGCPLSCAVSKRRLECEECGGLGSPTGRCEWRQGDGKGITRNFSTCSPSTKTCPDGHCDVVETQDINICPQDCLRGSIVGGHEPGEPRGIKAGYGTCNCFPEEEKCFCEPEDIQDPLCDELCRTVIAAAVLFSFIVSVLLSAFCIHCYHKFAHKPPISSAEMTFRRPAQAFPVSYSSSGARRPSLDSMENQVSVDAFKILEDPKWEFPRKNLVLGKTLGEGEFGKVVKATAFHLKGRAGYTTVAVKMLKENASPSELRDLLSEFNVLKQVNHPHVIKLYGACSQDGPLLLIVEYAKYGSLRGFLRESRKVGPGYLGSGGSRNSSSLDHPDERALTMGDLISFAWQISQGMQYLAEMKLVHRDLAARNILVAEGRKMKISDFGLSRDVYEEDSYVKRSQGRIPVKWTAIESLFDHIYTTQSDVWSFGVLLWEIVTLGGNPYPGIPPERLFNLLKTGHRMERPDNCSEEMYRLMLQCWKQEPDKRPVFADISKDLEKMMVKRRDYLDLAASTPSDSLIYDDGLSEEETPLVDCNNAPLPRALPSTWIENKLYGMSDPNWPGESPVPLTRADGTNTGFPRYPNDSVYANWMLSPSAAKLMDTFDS

Turning to `CNc1c(-c2cnn([C@H]3CCN(C(C)=O)C[C@@H]3F)c2)cnc2[nH]cc(Cl)c12` [Compound 77, 1-((3S,4S)-4-(4-(3-chloro-4-(methylamino)-1H-pyrrolo[2,3-b]pyridin-5-yl)-1H-pyrazol-1-yl)-3-fluoropiperidin-1-yl)ethan-1-one], the remaining binding at 1 µM was 80% in test [1]; 97% on YANK3; 67% on MKK7; 63% on MET; 100% at AMPK-alpha1; 100% on CDC2L5. Moreover, the remaining binding at 1 µM at FGFR3 is 64%; in [2], 95%; in test [3], 31%; in [4], 98%; on PIK3C2G, 100%; on RET(M918T), 33%.

With `CNc1c(-c2ccc(C(=O)N3CCC(N4CCOCC4)CC3)cc2)cnc2[nH]cc(Cl)c12` [Compound 96, (4-(3-chloro-4-(methylamino)-1H-pyrrolo[2,3-b]pyridin-5-yl)phenyl)(4-morpholinopiperidin-1-yl)methanone], the remaining binding at 1 µM in test [1] came out at 78%; on YANK3, 99%; at MKK7, 79%; at MET it was 84%; on AMPK-alpha1, 75%; at CDC2L5, 100%. The remaining binding at 1 µM at FGFR3 worked out at 82%; in test [2], 100%; in test [3] it was 52%; in [4] it was 97%; on PIK3C2G, 94%; on RET(M918T), 72%.

Take `O=C(c1ccc(-c2cnc3[nH]cc(Cl)c3c2NC2CCCC2)cc1)N1CCC(N2CCOCC2)CC1` [Compound 101, (4-(3-chloro-4-(cyclopentylamino)-1H-pyrrolo[2,3-b]pyridin-5-yl)phenyl)(4-morpholinopiperidin-1-yl)methanone]: the remaining binding at 1 µM in test [1] came to 66%; at YANK3 it was 57%; on MKK7 it was 100%; on MET it was 16%; at AMPK-alpha1 it was 78%; on CDC2L5, 2.1%. For the same compound, the remaining binding at 1 µM at FGFR3 stood at 67%; in test [2] it was 10%; in test [3], 95%; in test [4], 83%; at PIK3C2G, 92%; on RET(M918T) it was 95%.
